The text below walks through data of ChEMBL document CHEMBL1130740, “Sugar-substituted 2-azetidinone cholesterol absorption inhibitors: enhanced potency by modification of the sugar” (1998).

Holding throughout (type): functional, Cricetulus griseus
Assay [1] concerns Cricetinae gen. sp. Description: Compound was tested for percent reduction of serum cholesterol absorption in cholesterol fed hamster model at a dose of 3 mg/kg/day.
The subject of assay [2] is Cricetinae gen. sp. Description: Dose required to inhibit cholesterol absorption in cholesterol fed hamster model.
For assay [3], the system named is Cricetinae gen. sp. Description: Compound was tested for percent reduction of liver cholesterol esters absorption in cholesterol fed hamster model at a dose of 3 mg/kg/day.

On to `COC(=O)[C@H]1O[C@@H](Oc2ccc([C@@H]3[C@@H](CC[C@H](O)c4ccc(F)cc4)C(=O)N3c3ccc(F)cc3)cc2)[C@H](O)[C@@H](O)[C@@H]1O`, for which the results for the Reduction with Cricetinae gen. sp. [1] and in the assay with Cricetinae gen. sp. [3] were -48% and -89%, respectively. In addition, it took a dose of 0.04 mg/kg/day to reach the 50% effect level in the assay with Cricetinae gen. sp. [2] (ED50).

In the case of `COC(=O)[C@H]1O[C@@H](Oc2ccc([C@@H]3[C@@H](CC[C@H](OC(C)=O)c4ccc(F)cc4)C(=O)N3c3ccc(F)cc3)cc2)[C@H](OC(C)=O)[C@@H](OC(C)=O)[C@@H]1OC(C)=O`, the Reduction with Cricetinae gen. sp. [1] was -53%; in the assay on Cricetinae gen. sp. [3], -96%. The same molecule had an ED50 in the assay with Cricetinae gen. sp. [2] of 0.09 mg/kg/day.

Regarding `O=C1[C@H](CC[C@H](O)c2ccc(F)cc2)[C@@H](c2ccc(O[C@@H]3O[C@H](CO)[C@@H](O)[C@H](O)[C@H]3O)cc2)N1c1ccc(F)cc1`, the Reduction with Cricetinae gen. sp. [1] is -48%; with Cricetinae gen. sp. [3], -92%. This molecule had a median effective dose (ED50) in the assay with Cricetinae gen. sp. [2] of 0.08 mg/kg/day.

`O=C(O)[C@H]1O[C@@H](Oc2ccc([C@@H]3[C@@H](CC[C@H](O)c4ccc(F)cc4)C(=O)N3c3ccc(F)cc3)cc2)[C@H](O)[C@@H](O)[C@@H]1O`: the figures for the Reduction with Cricetinae gen. sp. [1] and in the assay on Cricetinae gen. sp. [3] were -50% and -95%, respectively. Also, the ED50 in the assay with Cricetinae gen. sp. [2] was found to be 0.17 mg/kg/day.

Consider `CC(=O)OC[C@H]1O[C@@H](Oc2ccc([C@@H]3[C@@H](CC[C@H](OC(C)=O)c4ccc(F)cc4)C(=O)N3c3ccc(F)cc3)cc2)[C@H](OC(C)=O)[C@@H](OC(C)=O)[C@@H]1OC(C)=O`, for which the Reduction with Cricetinae gen. sp. [1] is -14%; in the assay with Cricetinae gen. sp. [3] it was -58%.

As for `O=C1[C@H](CC[C@H](O)c2ccc(F)cc2)[C@@H](c2ccc(O[C@@H]3O[C@H](CO)[C@@H](O[C@@H]4O[C@H](CO)[C@@H](O)[C@H](O)[C@H]4O)[C@H](O)[C@H]3O)cc2)N1c1ccc(F)cc1`, the Reduction is on record as -36% with Cricetinae gen. sp. [1] and -90% in the assay on Cricetinae gen. sp. [3]. In the assay on Cricetinae gen. sp. [2], the 50% effect level (ED50) was put at a dose of 0.01 mg/kg/day.

`CC(=O)OC[C@H]1O[C@@H](O[C@H]2[C@H](OC(C)=O)[C@@H](OC(C)=O)[C@H](Oc3ccc([C@@H]4[C@@H](CC[C@H](OC(C)=O)c5ccc(F)cc5)C(=O)N4c4ccc(F)cc4)cc3)O[C@@H]2COC(C)=O)[C@H](OC(C)=O)[C@@H](OC(C)=O)[C@@H]1OC(C)=O`: the values for the Reduction in the assay on Cricetinae gen. sp. [1] and with Cricetinae gen. sp. [3] were -43% and -75%, respectively.

As for `O=C1[C@H](CC[C@H](O)c2ccc(F)cc2)[C@@H](c2ccc(O)cc2)N1c1ccc(F)cc1` [EZETIMIBE], the Reduction is -43% with Cricetinae gen. sp. [1] and -93% in the assay with Cricetinae gen. sp. [3]. Moreover, the 50% effect level with Cricetinae gen. sp. [2] (ED50) was put at a dose of 0.04 mg/kg/day.

In turn, `COc1ccc([C@@H]2[C@@H](CCCc3ccccc3)C(=O)N2c2ccc(OC)cc2)cc1` [SCH-48461] yielded a 50% effective dose (ED50) in the assay with Cricetinae gen. sp. [2] of 2 mg/kg/day.
